# Patent publication US4447445A (priority 1983, dated 1984)
# Where “and” joins values, the source holds several entries; their conditions need not be identical. Identical values can stand only once. Entries after “also recorded” stand apart in the source; their conditions may differ.
# Legend:
# [1] = system: PMA induced inflammation of mouse ears; test: PMA Mouse Ear Anti-Inflammatory Assay; type: in vivo; conditions: for % Inhibition of Edema Alone: Manoalide 0.04 mg/ear, Hydrocortisone 0.009 mg/ear, Indomethacin 0.09 mg/ear
# Procedure: (§1) Test compound and phorbol myristate acetate (PMA) or arachidonic acid (ARA) are topically applied simultaneously to the left ears of mice. Three hours 20 minutes (or one hour for ARA) after application, the mouse is sacrificed, left and right ears removed and standard sized bores taken. Edema (inflammation) is measured as the difference in weight between left and right ears [Van Arman, C. G., Clin. Pharmacol. Ther. 16, 900-904 (1974)].
# [2] = system: eggs (from Lytechinus pictus); test: Fertilized Sea Urchin Egg Inhibition of Cleavage Assay; type: cell-based; conditions: for inhibition of cell division: preliminary assays
# Procedure: Test compound is added to a slurry of eggs (from Lytechinus pictus) within five minutes following fertilization and incubated until the completion of first division in control slurry, approximately 90 minutes. Inhibition is measured as the percent of undivided eggs in the slurry at the end of incubation [Hinegardner, R., In The Sea Urchin Embryo, ed. C. Czihar (Springer-Verlag, Berlin, 1974)].
# [3] = system: isolated diaphragm; test: Rat Phrenic Nerve - Hemidiaphragm; conditions: for effects on skeletal muscle: preliminary assays
# Procedure: Compound is tested for its ability to inhibit or facilitate the twitch of the isolated diaphragm in response to the electrical stimulation of the phrenic nerve [Bulbring, E., Br. J. Pharmac. Chemother. 1, 38 (1946)].
# [4] = system: spontaneous beating isolated guinea pig auricles; test: Guinea Pig Auricles; conditions: for effects on cardiac muscle: preliminary assays
# Procedure: Test compound is administered to the spontaneous beating isolated guinea pig auricles and observed for its ability to alter either the rate or the force of contraction or to antagonize the effects of acetylcholine [modified from J. Physiol. 61, 547 (1926); Heffter's Hanb. Exp. Pharmak. 4, 185 (1937)].
# [5] = system: oxazolone induced inflammation of mouse ears; test: Oxazolone-Induced Sensitization inflammation; type: in vivo; conditions: for EAR WEIGHT (MGS): with oxazolone
# Procedure: Mice are sensitized by the application of oxazolone to the abdominal area. One week later, test compound and oxazolone are topically applied to the ears of these mice. Six hours after application, the mice are sacrificed, the ears removed and standard sized bores taken and weighed. Edema (inflammation) is measured as the difference in weight between control and treated ears. Without previous sensitization exposure, oxazolone has no inflammatory effect on mouse ears.
# [6] = system: ARA induced inflammation of mouse ears; test: Arachidonic Acid Mouse Ear Assay; conditions: in vivo
# Procedure: as §1
# [7] = system: mouse ears; test: Histology of mouse ears from the anti-inflammatory assay; conditions: in vivo
# From the text: Mouse ears from the anti-inflammatory assay are fixed in Karnofsky's fixative and osmium tetroxide and then embedded in araldite epoxy resin for sectioning for light and electron microscopy.
# [8] = system: electrically driven section of isolated small intestine; test: Electrically Stimulated Guinea Pig Ileum
# [9] = target: β-bungarotoxin (Bungarus multicinctus, UniProt P00617)
# Sequence of β-bungarotoxin (P00617 whole entry, looked up): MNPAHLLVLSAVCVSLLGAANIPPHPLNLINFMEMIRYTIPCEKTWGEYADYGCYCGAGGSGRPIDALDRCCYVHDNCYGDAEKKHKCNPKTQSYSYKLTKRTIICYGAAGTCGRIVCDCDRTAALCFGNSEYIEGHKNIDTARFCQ
# [10] = system: mice; test: Analgesia - Haffner Technique (tail clip); type: in vivo, mouse; conditions: high doses
# Procedure: Analgesia is measured as the lack of response to a pinch clamp applied to the tail of a mouse 15 to 30 minutes following subcutaneous injection of the test compound [Bianchi, G. and G. Franeschini, Brit. J. Pharmac. 9, 280 (1954)].
# [11] = system: isolated section of small intestine; test: Guinea Pig Ileum; conditions: initial screening
# [12] = system: isolated rat uterus; test: Rat Uterus (Prostaglandin Assay); conditions: against PGE2, PGE1 and PGF2
# [13] = system: tumors formed on mouse ears; test: Tumor Promotion (DMBA/PMA mouse ear); type: in vivo; conditions: PMA as promoter with initiator DMBA
# From the text: An initiating agent, 7,12-dimethylbenzanthracene (DMBA), is applied topically to the ears of mice. Beginning one month later, a tumor promoting agent, phorbol myristate acetate (PMA), and the test compound are applied simultaneously to the ears twice per week for four weeks, then once per week for two weeks. Ears are observed for formation of tumors at the times of application and one week following completion of applications.
# [14] = system: PMA induced inflammation of mouse ears; test: PMA Mouse Ear Anti-Inflammatory Assay; conditions: in vivo
# [15] = system: mice; test: Acute Toxicity (with analgesia screening); type: in vivo, mouse; conditions: initial screening
# Procedure: Test compound is injected subcutaneously into mice which are observed for three days for both lethality and any unusual behavior or appearance. This assay may be performed in conjunction with analgesia assays.
# [16] = target: phospholipase A2 from bee venom (Apis mellifera, UniProt P00630); type: biochemical
# Sequence of phospholipase A2 from bee venom (P00630 34-167 limits assumed): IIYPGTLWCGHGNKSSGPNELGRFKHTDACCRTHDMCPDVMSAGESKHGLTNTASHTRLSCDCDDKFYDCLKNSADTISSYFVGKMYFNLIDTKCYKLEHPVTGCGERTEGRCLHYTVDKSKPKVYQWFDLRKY
# [17] = target: T1, acetylcholinesterase (Rattus norvegicus, UniProt P37136); test: Acetylcholinesterase Assay; type: biochemical
# T1 construct: rat brain extract (source of acetylcholinesterase); from tissue; host or cells: rat brain extract
# T1 sequence (P37136 32-614): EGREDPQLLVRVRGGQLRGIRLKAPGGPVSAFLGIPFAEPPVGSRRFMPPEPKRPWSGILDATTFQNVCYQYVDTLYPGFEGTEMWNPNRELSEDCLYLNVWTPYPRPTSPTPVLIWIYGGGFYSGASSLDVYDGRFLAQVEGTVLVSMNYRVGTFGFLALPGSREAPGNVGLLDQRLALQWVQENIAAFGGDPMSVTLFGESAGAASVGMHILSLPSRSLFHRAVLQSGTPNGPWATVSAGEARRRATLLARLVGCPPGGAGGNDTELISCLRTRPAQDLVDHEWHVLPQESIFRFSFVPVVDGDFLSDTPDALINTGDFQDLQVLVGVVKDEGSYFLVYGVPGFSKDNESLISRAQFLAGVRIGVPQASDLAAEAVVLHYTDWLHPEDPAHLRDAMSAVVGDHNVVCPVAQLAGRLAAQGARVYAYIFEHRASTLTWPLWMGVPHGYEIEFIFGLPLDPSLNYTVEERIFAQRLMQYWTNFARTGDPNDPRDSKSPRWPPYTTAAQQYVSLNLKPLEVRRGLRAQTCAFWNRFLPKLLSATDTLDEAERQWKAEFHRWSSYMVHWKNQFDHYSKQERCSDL
# Procedure: Test compound is incubated with rat brain extract (source of acetylcholinesterase), acetylthiocholine and dithiobis (2-nitrobenzoic acid). Inhibition of acetylcholinesterase activity is measured spectrophotometrically.
# [18] = mouse, in vivo, listed as manoalide
structure (smiles),measurement,setting,value
"CC(=CCCC(C=O)=CC=CC1=CC(=O)OC1O)CCC1=C(C)CCCC1(C)C (single isomer, unassigned) [dehydro-seco-manoalide]",PMA Mouse Ear anti-inflammatory activity (remark),"[1]; mouse, in vivo",anti-inflammatoryactivity
same,anti-inflammatory potency relative to comparators,"[1]; mouse, in vivo",nearly equivalent in potency to that of manoalide
same,inhibition of cell division,[2],no significant activity
same,effects on skeletal muscle,[3],no significant activity
same,effects on cardiac muscle,[4],no significant activity
"C[C@]12CCC(=O)C=C1CC[C@@H]1[C@@H]2[C@@H](O)C[C@@]2(C)[C@H]1CC[C@]2(O)C(=O)CO [Hydrocortisone, hydrocortisone, reference compound]",% Inhibition of Edema Alone,[1],16.59 ± 7.00%
same,EAR WEIGHT (MGS),[5]; dose 50 μg/ear,9.7 ± 1.2 MGS
same,EAR WEIGHT (MGS),[5]; dose 100 μg/ear,9.2 ± 0.4 MGS
same,effect on ARA induced ear inflammation,[6],Neither manoalide nor hydrocortisone affected the ARA induced inflammation
"COc1ccc2c(c1)c(CC(=O)O)c(C)n2C(=O)c1ccc(Cl)cc1 [Indomethacin, indomethacin, reference compound]",% Inhibition of Edema Alone,[1],31.42 ± 12.72%
same,EAR WEIGHT (MGS),[5]; dose 50 μg/ear,16.6 ± 5.7 MGS
same,EAR WEIGHT (MGS),[5]; dose 100 μg/ear,11.1 ± 1.2 MGS
same,effect on ARA induced ear inflammation,[6],effectively blocked
CC1=C(CC/C(C)=C/CCC2=CCC(C3=CC(=O)OC3O)OC2O)C(C)(C)CCC1 (centres unmarked) [Manoalide],Histology of PMA treated ears,[7],Decreased lymphocyte
same,Histology of PMA treated ears,[7]; listed as manoalide,qualitatively produced similar effects to both hydrocortisone and indomethacin
same,% Inhibition of Edema Alone,[1],28.24 ± 6.58%
same,PMA - Mouse Ear Competition for binding,"[1]; mouse, in vivo",Does not compete
same,PMA - Mouse Ear Potentiation (with Hydrocortisone and Indomethacin),"[1]; mouse, in vivo",Active
same,PMA Mouse Ear anti-inflammatory activity (remark),"[1]; mouse, in vivo",Active; also recorded: blocks this inflammation
same,anti-inflammatory potency relative to comparators,"[1]; mouse, in vivo",greater than that of indomethacin; also recorded: less potent than hydrocortisone
same,anti-inflammatory potency relative to comparators,[1]; [18],more potent than indomethacin and less potent than hydrocortisone
same,ED50 (PMA induced ear inflammation),"[1]; topical, will vary with PMA dose",~40 μg/ear
same,reduction of inflammation due to PMA induction,[1]; total dose of 10 μg applied to the ear,marked reduction of inflammation
same,IC50,"[2]; Lytechinus pictus, 1.5 h, read-out: Fertilized Sea Urchin Egg ED50",1 µg/mL
same,Fertilized Sea Urchin Egg Inhibition of Cleavage (remark),[2]; initial screening,Active
same,Electrically Stimulated Guinea Pig Ileum (remark),[8],Inactive
same,antagonism of the morphine block,[8],nor did it antagonize the morphine block
same,block of electrically induced contractions,[8],neither blocked electrically induced contractions
same,inactivation of β-Bungarotoxin neurotoxic action,[9],inactivated the irreversible neurotoxic action of β-bungarotoxin; also recorded: prevents the paralytic action of β-bungarotoxin
same,"Analgesia (Haffner Tail-Clip), mechanically induced pain",[10],Inactive
same,"Analgesia (Haffner Tail-Clip), mechanically induced pain",[10]; listed as manoalide,did not significantly affect mechanically induced pain
same,Guinea Pig Ileum (remark),[11],Active
same,Rat Uterus (Prostaglandin Assay) activity,[12],Inactive
same,Rat Uterus (Prostaglandin Assay) activity,[12]; listed as manoalide,inactive against these agents
same,incidence of tumors formed on mouse ears,[13],significantly decreases the incidence of tumors
same,contracture in the rat hemidiaphragm preparation,[3],modest contracture
same,effect on the directly stimulated twitch,[3],mildly inhibiting the directly stimulated twitch
same,Rat Phrenic Nerve - Hemidiaphragm (remark),[3]; initial screening,Active
same,Acetylcholine Antagonism in Guinea Pig Auricles,[4],Inactive
same,Guinea Pig Auricles (remark),[4]; initial screening,Active
same,PMA - Mouse Ear Time Course of Action: time of optimum activity relative to PMA application,[14],< 5 min
same,PMA - Mouse Ear Time Course of Action: time of optimum activity relative to PMA application,[14]; listed as manoalide,five
same,EAR WEIGHT (MGS),[5]; dose 50 μg/ear,17.5 ± 3.7 MGS
same,EAR WEIGHT (MGS),[5]; dose 100 μg/ear,13.1 ± 1.4 MGS
same,effect on oxazolone induced inflammation,[5]; [18],blocks the oxazolone induced inflammation
same,effect on ARA induced ear inflammation,[6],Inactive
same,effect on ARA induced ear inflammation,[6]; listed as manoalide,Neither manoalide nor hydrocortisone affected the ARA induced inflammation
same,Mouse Toxicity and Analgesia (remark),[15],Active
same,Inhibition of purified phosplolipase A2 (remark),[16],Active
same,effect on enzyme activity (hydrolysis of phosphatidylcholine),[16],concentration dependent decrease in enzyme activity; also recorded: potent inhibitor of the hydrolysis of phosphatidylcholine
same,type of inhibition of phospholipase A2,[16],non-competitive inhibitor
same,Acetylcholinesterase (remark),[17],Inactive
CCN(CC)CCCC(C)Nc1c2ccc(Cl)cc2nc2ccc(OC)cc12 (centres unmarked) [mepacrine],Mean TI50 ± S.E.,[9],43.50 ± 2.50 and 49.00 ± 4.00 and 46.60 ± 7.54 and 35.66 ± 4.67
same,effect on enzyme activity (hydrolysis of phosphatidylcholine),[16],ineffective
CC1=C(CC/C(C)=C/CCC(C=O)=CCC(O)C2=CC(=O)OC2O)C(C)(C)CCC1 (centres unmarked) [seco-manoalide],PMA Mouse Ear anti-inflammatory activity (remark),"[1]; mouse, in vivo",anti-inflammatoryactivity
same,anti-inflammatory potency relative to comparators,"[1]; mouse, in vivo",nearly equivalent in potency to that of manoalide
same,inhibition of cell division,[2],no significant activity
same,effects on skeletal muscle,[3],no significant activity
same,effects on cardiac muscle,[4],no significant activity
